Measurements from US20020032182A1, “Method of treating hypersomnia sleep disturbance or insomnia sleep disturbance that is secondary to another condition” (priority 1997, published 2002).
“Also recorded” adds a separate entry of the source. Where a name gives a salt, the structure may show the parent alone.

How the values were obtained:
[1] = test system: depression in the form of dysthymia; assay: Patient No. 1 weekly blinded component study with Beck Scale and SCL-90 Scale self-rating; type: in vivo, human; settings: for patient-reported symptoms during week: component taken along with sertraline 125 mg qd
Experimental: Patient No. 1 was a person who, after a series of psychoanalysis/psychotherapy sessions, was diagnosed as suffering from depression in the form of dysthymia. Patient No. 1 experienced a chronic low mood with markedly diminished interest and pleasure in all activities including work, eating, and sexual relations.
Initially, Patient No. 1 was treated only with the known antidepressant sertraline (sold under the registered trademark ZOLOFT®). Sertraline is a selective serotonin reuptake inhibitor. Sertraline was administered in amounts from 50 to 150 mg qd (per day); the ideal dose for this patient was ultimately determined to be 125 mg qd (per day).
Independent of the sertraline treatments, the patient began taking a vitamin and mineral supplement that included a series of components. […] As such improvement was unexpected, a study of the components of the mineral preparation was undertaken. During this study, Patient No. 1 stopped taking the composite preparation.
In this study, Patient No. 1 took one component of the preparation at a time according to a schedule of one pill a day for five days, Monday through Friday. At the end of each week, they filled out two self-rating scales that are used in the diagnosis and monitoring of depression. These scales are the Beck Scale and the SCL-90 Scale, both of which are well known in the field of psychiatry and psychotherapy. Patient No. 1 continued to take sertraline at 125 mg per day. During the study, Patient No. 1 was not informed of what they were taking.
The series of events described in the above example are more fully set forth in the graphs in FIGS. 1 and 2. FIG. 1 is a bar graph displaying the scores on the Beck Scale, a self-rating scale for depression, at the end of each weekly treatment.
FIG. 2 is a bar graph of the total score on the SCL-90 Scale. The SCL-90 is composed of 90 questions. It is designed to measure symptoms of somatization, obsessive-compulsive behavior, interpersonal sensitivity, depression, anxiety, hostility, phobic anxiety, paranoid ideation, and psychoticism. It is noted that the grand total of scores on each Friday closely parallels the results of the Beck Scale.

Plasma chromium level = type: in vivo, human
Experimental: Most preferred dosage ranges of chromium are those doses sufficient to deliver from about 4.5 to about 6 μg of chromium per kilogram (kg) of body weight. This dosage range is generally several fold greater than that contained in most commercially available multi-vitamin and mineral preparations. This amount results in a plasma chromium level between 0.9 μg/liter to 2.1 μg/liter. The plasma level will vary depending on the level of exercise, i.e., the more one exercises, the more chromium is required to maintain plasma levels.
Commercially available tubes for the collection of blood can contain significant amounts of chromium. To avoid contamination, plasma levels of chromium should be determined from blood collected in heparinized or EDTA tubes.

alcohol craving = assay: Patient No. 1 alcohol craving while taking chromium picolinate alone; type: in vivo, human
From the text: During the later stages of the study described above, when Patient No. 1 was taking chromium picolinate alone, they also noticed a change in their ability to tolerate alcohol. Both of their parents were alcoholics so they guarded carefully against this outcome by drinking infrequently.
Despite this effort, […] often experienced intense cravings for alcohol. Prior to […] treatment with chromium, when […] consumed alcohol, […] could only drink it by gulping it. […] experienced rapid intoxication, unpleasant feelings, and a severe hangover the next day. […] […] also observed that […] could drink in moderation, without having a severe hangover the next day.

dysthymia = assay: Patient No. 2 weekly component study with Beck Scale and SCL-90 Scale; type: in vivo, human
Experimental: Patient No. 2 was a single person. They are the child of Patient No. 1. They complained of weight gain, hyperphagia, hypersomnia, loss of interest in sex, irritability and an inability to concentrate. They stated that they had been seeing psychotherapists since they were […], but had no success in dealing with their depression. They were also diagnosed as having dysthymia.
They had taken sertraline in the amount of 50 mg qd with little help. This dosage was increased to 100 mg qd which proceeded for a period of five weeks. […] They were not as weepy and their outlook was less negative. Their interest in sex was increased. Their appetite remained the same.
Patient No. 2 then began a similar study as that described above for Patient No. 1. For the first week, they took one vitamin C tablet daily along with 100 mg of sertraline. Their depression appeared to worsen as reflected by their grand total Beck score of +12 and their SCL-90 of +4 as more fully portrayed on the FIG. 4.
For Patient No. 2, FIG. 4 presents Patient No. 2's Beck Scale total scores, and FIG. 5 presents a graph of the four subscales of somatization, obsessive-compulsive, depression, and anxiety on the SCL-90 Scale.

[2] = test system: pre-menstrual syndrome (PMS); assay: Patient No. 2 pre-menstrual syndrome observation; type: in vivo, human; settings: chromium 200 μg per day
Experimental: They said that they had less carbohydrate craving during the week before, that they were less irritable, that their dysphoria was relieved, and that their usual cramps were non-existent. Thus, an aspect of the present invention includes the treatment of pre-menstrual syndrome (PMS), or dysmenorrhea (problematic and/or painful menses), comprising administering chromium in a preferred dose of 200 μg per day to a patient in need thereof.

severe dysthymia = assay: Patient No. 3 treatment of severe dysthymia; type: in vivo, human
From the text: Patient No. 3 was a divorced person experiencing chronic suicidal depression for about 15 years. For as long as the patient can remember, they have had episodic, mild-to-moderate mood swings. Approximately 15 years ago, their condition worsened and they were depressed almost daily. Their thoughts were slowed down, they felt intensely sad, guilty, worthless, confused, and desperate. Over a period of approximately two years they underwent therapy with a social worker and psychotherapy with a psychiatrist, with little positive results. No pharmaco-therapy was involved in either of these treatments. Initially, Patient No. 3 met with the inventor and identified a childhood source as a partial cause of their depression, low self-esteem and dysfunctional thinking. Although they appreciated the insights gained through the psychoanalysis/psychotherapy with the inventor, their depression persisted unabated. They were rejected by their girlfriend and became frighteningly suicidal. […] Within six months they developed a tolerance to the drug and it was increased to 100 mg per day with no effect. They stopped […]® and started bupropion 100 mg b.i.d and lithium 300 mg t.i.d. Bupropion is an aminoketone antidepressant, and lithium is a metal used to treat bipolar disorder. […] Their condition was desperate and life-threatening.

[3] = test system: pre-menstrual syndrome (PMS) and major depression; assay: Patient No. 4 treatment of major depression and self-rating of pre-menstrual syndrome symptoms; type: in vivo, human
Experimental: Patient No. 4 was a person who has struggled to overcome a wide variety of psychiatric symptoms, two of which are depression and pre-menstrual syndrome (PMS). After several treatments, it was determined that a combination of paroxetine 20 mg t.i.d. and lithium 300 mg t.i.d. diminished their symptoms of obsessive-compulsive disorder, depression, hypomania and PMS.
In FIGS. 6-8 the abbreviations for each symptom on the graphs may be translated as follows:
Patient No. 4's formal diagnoses were Multiple Personality Disorder, Obsessive-Compulsive Disorder, Major Depression Disorder, Alcoholism (recovering), and Pre-Menstrual Syndrome (PMS).
Set forth below in Table 1 are the research criteria set forth in the Diagnostic and Statistical Manual of Mental Disorders, Forth edition, published by the American Psychiatric Association for Pre-Menstrual Dysphoric Disorder, or Pre-Menstrual Syndrome.
They described a typical menses as follows. They were usually moderately to severely depressed for at least two days during the week before their menses. They had sudden mood swings. One moment they would be crying and the next they would be laughing wildly, or they would have sudden outbursts of anger. They were markedly tense and would fidget constantly. They tired easily and lacked energy. They could barely drag themself out of bed each morning. They craved carbohydrates and often would eat several doughnuts, whole cakes, or boxes of cookies. They slept little, and for two or three nights they would have night sweats that drenched their bed. They also experienced back cramps, bloating and pains in their joints and muscles. They had trouble concentrating and was unable to do life's simplest chores. Their PMS interfered with their ability to function. They lost interest in their favorite hobby, reading.

[4] = test system: depression in the form of dysthymia; assay: Patient No. 1 weekly blinded component study with Beck Scale and SCL-90 Scale self-rating; type: in vivo, human
[5] = test system: pre-menstrual syndrome (PMS); settings: women with PMS treated with fluoxetine; cited from earlier work
[6] = sertraline only, 50 to 150 mg qd
[7] = sertraline 100 mg with one vitamin C tablet daily, first week

chromium picolinate
potential adverse side effect ([1]; 200 μg chromium from chromium picolinate taken late in the day): their sleep was disturbed
patient-reported symptoms during week [1]: dramatic, certain and immediate relief of symptoms
total Beck score at the end of the week ([1]; one pill of component a day for five days along with sertraline 125 mg qd (chromium 200 μg per day)): 0
plasma chromium level (Plasma chromium level; Patient No. 1, 400 μg chromium per day as chromium picolinate, sertraline discontinued): 0.9 µg/L
plasma chromium (Plasma chromium level; Patient No. 2, four days after resuming chromium picolinate 200 μg per day): 0.8 µg/L
alcohol cravings (alcohol craving): significantly diminished alcohol cravings
SCL-90 score (dysthymia; 200 μg chromium per day with sertraline 100 mg per day, second week): definite improvement
response after resuming treatment (dysthymia; chromium picolinate 200 μg per day): Within two days they felt better and had no symptoms
patient-reported symptoms during week (dysthymia; component taken along with sertraline 100 mg per day): their appetite was less
Beck Scale estimated via telephone interview (dysthymia; resumed chromium picolinate 200 μg per day, sertraline continued): +2
pre-menstrual syndrome / menses symptoms [2]: their menses was less problematic
overall response (severe dysthymia; chromium 200 μg twice daily, 400 μg per day): marked improvement
signs or symptoms of PMS ([3]; chromium 200 μg b.i.d. with paroxetine 20 mg t.i.d. and lithium 300 mg t.i.d.): completely without signs or symptoms of PMS, except for breast swelling
patient-reported condition on chromium alone ([4]; 400 μg chromium per day (200 μg b.i.d.), sertraline discontinued): their sleep was much improved; also recorded: felt the best they had felt in a decade
time to improvement after dose increase ([4]; crisis period at work, 200 μg chromium t.i.d.): Within an hour, they noticed immediate improvement

[Cr] [chromium]
time to relief of symptoms (severe dysthymia; chromium picolinate 200 μg b.i.d. with sertraline 100 mg qd): relief of symptoms within four to five days

CC(NC(C)(C)C)C(=O)c1cccc(Cl)c1 (centres unmarked) [bupropion]
adverse effect leading to discontinuation (severe dysthymia; bupropion 100 mg b.i.d. with lithium 300 mg t.i.d.): developed involuntary muscle twitches

CNCCC(Oc1ccc(C(F)(F)F)cc1)c1ccccc1 (centres unmarked) [fluoxetine]
women suffering from PMS without a positive response [5]: ~40%

[Se] [selenium]
patient-reported symptoms during week [1]: felt agitated

CN[C@H]1CC[C@@H](c2ccc(Cl)c(Cl)c2)c2ccccc21 [sertraline, reference compound]
total Beck score ([1]; sertraline 125 mg each day for five days with vitamin C placebo): +10
symptoms in week prior to study ([1]; sertraline 125 mg qd alone): loss of energy, disturbed sleep, and awaking tired
relief of symptoms of dysthymia [1, 6]: provided some relief of the symptoms of dysthymia
side effects [1, 6]: made the patient sluggish in their daily activities and made their thinking cloudy, or fuzzy
effect on depression (dysthymia; sertraline 50 mg qd): little help
effect on depression (dysthymia; sertraline 100 mg qd for five weeks): still symptomatic of depression, but felt better
SCL-90 score (dysthymia; [7]): +4
grand total Beck score (dysthymia; [7]): +12

Fc1ccc([C@@H]2CCNC[C@H]2COc2ccc3c(c2)OCO3)cc1 [paroxetine]
change in severity of PMS symptoms ([3]; paroxetine): reduced the severity of their symptoms of PMS from severe to moderately severe
patient rating of PMS ([3]; paroxetine 20 mg t.i.d. and lithium 300 mg t.i.d.): moderate to severe and barely tolerable
depression ([3]; resumed lithium 300 mg t.i.d. and paroxetine 40 mg per day): their depression was refractory

CN(C)CCC=C1c2ccccc2CCc2ccccc21 [ELAVIL, amitriptyline HCl]
effect on depression (severe dysthymia; 50 mg per day): helped them sleep
effect on depression (severe dysthymia; increased to 100 mg per day after tolerance): no effect
